In US11034678B2, “Diacylglycerol acyl transferase 2 inhibitors” (Pfizer Inc., priority 2016, dated 2021):

Assay: Metabolic clearance in HLM (hepatic clearance profile, Clint, app)
Assay type: in vitro ADME, human

Compound	CIint, app in HLM
CCOc1cccnc1Oc1cncc(-c2ncc(C(=O)NC(C)(C)CO)cn2)c1 [Example 5, 2-(5-((3-Ethoxypyridin-2-yl)oxy)pyridin-3-yl)-N-(1-hydroxy-2-methylpropan-2-yl)pyrimidine-5-carboxamide]	18 µL/min/mg
CCOc1ccccc1O[C@@H]1CCCN(c2ncc(C(=O)NC(C)(C)CO)cn2)C1 [WO2015140658 Example 19.21]	121 µL/min/mg
